{
  "source": "patent US20190142336A1",
  "about": "“SYSTEMS AND METHODS FOR DETERMINING RESPONSE TO ANESTHETIC AND SEDATIVE DRUGS USING MARKERS OF BRAIN FUNCTION” (THE GENERAL HOSPITAL CORPORATION, priority 2016, published 2019)",
  "origin": "cited, not measured here",
  "key": {"[1]": {"test_system": "dopamine and norepinephrine reuptake transporters"}, "[2]": {"settings": "plethysmography and blood gas"}},
  "data": [
    {"smiles": "COC(=O)C(c1ccccc1)C1CCCCN1", "note": "(stereo not drawn) [methylphenidate]", "values": [
      {"measurement": "emergence from general anesthesia", "setting": "[1]; isoflurane general anesthesia", "result": "actively induces emergence"},
      {"measurement": "minute ventilation", "setting": "[2]", "result": "increases minute ventilation"}
    ]},
    {"smiles": "O=C(CCCN1CC=C(n2c(=O)[nH]c3ccccc32)CC1)c1ccc(F)cc1", "note": "[droperidol]", "values": [
      {"measurement": "behavioral and respiratory effects induced by methylphenidate", "setting": "[1]; given against methylphenidate-induced arousal", "result": "inhibited"}
    ]}
  ]
}
